# Assay results taken from patent publication US20190046490A1, “METHODS OF TREATING LACTOSE INTOLERANCE” (Nogra Pharma Limited, priority 2016, published 2019).
# Several values for one entry are separate records, joined by “and”; a condition that tells them apart may be missing. Equal values may be shown once.
# Columns and labels:
# [1] = tested on: Caco-2 cells; test: Glucose uptake assay (2-DG6P) in Caco-2 cells; type: cell-based, human; conditions: 1 mM, 24 h
# Method: Glucose uptake was evaluated by using the glucose uptake colorimetric assay kit (Sigma-Aldrich) according to the manufacturer's instructions. Briefly, Caco-2 cells were seeded into a 96-well plate at a density of 30,000 cells per well. Cells were serum deprived for 16 hours prior to stimulation in order to synchronize the cells. Cells were treated with GED (1 mM) or pioglitazone (1 μM) for 24 h. Cells were then washed 3 times with PBS and were glucose-starved by incubating with 100 μl of KRPH buffer (Krebs-Ringer-Phosphate-HEPES (KRPH) Buffer—20 mM HEPES, 5 mM KH2PO4, 1 mM MgSO4, 1 mM CaCl2, 136 mM NaCl, and 4.7 mM KCl, pH 7.4) containing 2% BSA for 40 minutes. 10 μl of 2-deoxyglucose (2-DG; 10 mM) was then added and incubation was continued for 20 minutes. 2-DG is taken up by the cells and phosphorylated by hexokinase to 2-DG6P, which cannot be further metabolized and accumulates in cells. Following incubation, cells were washed 3 times with PBS and lysed with 80 μl of the extraction buffer provided. The amount of 2-DG6P (which is directly proportional to glucose uptake by the cells) was determined by a colorimetric detection assay according to the manufacturer's protocol.
# [2] = tested on: LCT gene; test: Transcriptome microarray analysis of LCT mRNA expression in Caco-2 cells treated with PPARγ modulators; type: cell-based, human; conditions: vs unstimulated cells
# Method: Caco-2 (colonic adenocarcinoma) cells were grown in Dulbecco's Modified Eagle's Medium (DMEM, Invitrogen, Life Technologies, Cergy-Pontoise, France) supplemented with 20% foetal calf serum (FCS, Dutscher, Brumath, France), 1% penicillin-streptomycin (5 ml/l) (Invitrogen, Life technologies) and 1% non-essential amino acids (5 ml/l) (Invitrogen, Life technologies). All cell lines were cultured as confluent monolayers at 37° C. in a controlled, 5% CO2 atmosphere.
# For cell stimulations, 1×10^6 cells per well were seeded in 6-well plates. Cells were serum deprived for 16 hours prior to stimulation in order to synchronize the cells. Cells were treated with GED (Nogra Pharma Ltd, Ireland), pioglitazone (1 μM, Sigma-Aldrich) or CLA (various concentrations, Sigma-Aldrich). When necessary, the DMSO vehicle (Sigma-Aldrich) was used as control. After 24 hours of stimulation, cells were washed three times with sterile PBS before RNA extraction. Cell stimulations were performed in 4 replicates for microarray analysis and in 3, 4 or 6 replicates for other stimulations.
# Cells were lysed with lysis buffer (RA1, Macherey-Nagel) containing 1% β-mercaptoethanol. Total RNA was extracted with a Nucleospin RNA kit (Macherey-Nagel, Hoerdt, France). After RNAse inactivation, total RNA was cleaned of genomic DNA traces by DNAse treatment and eluted in RNAse-free, DEPC-water. The purity of the RNA was evaluated by UV spectroscopy on a Nanodrop system (Nyxor Biotech, Paris, France) from 220 to 350 nm. Before microarray experiments, RNAs were also profiled on an Agilent 2100 bioanalyzer. One μg of total RNA with a minimum concentration of 50 ng/μl was used in the microarray and qRT-PCR analysis.
# Dual-colour gene expression microarrays were used to compare the cRNA from the samples. 44,000 genes were screened. The RNAs from the samples were first reverse-transcribed into cDNA (Affinity-Script RT, Agilent), which were then used as the substrate for the synthesis and amplification of cRNA by T7 RNA polymerase in the presence of cyanine 3-CTP for the CTL sample (green fluorescence) and cyanine 5-CTP for the PPAR-γ y modulator sample (red fluorescence). The two-labelled cRNAs were mixed, hybridized on the same array (G4851A Agilent 8×44K) and then scanned (with an Agilent G2505B scanner). Fluorescence was visualized after laser excitation and the relative intensities of the two fluorophores were expressed as a ratio, in order to yield the over- or under-expression status of each gene (using GeneSpring software (Agilent)). This analysis was performed for each PPAR-γ modulator.
# [3] = tested on: LCT; test: LCT mRNA expression and activity in proximal small intestine of rats after oral GED; type: in vivo; conditions: weaned Sprague-Dawley rats, 30 mg/kg daily by gavage for 7 days
# Method: Expression of genes of interest was quantified by quantitative PCR (qPCR) of corresponding reverse transcribed mRNA. One μg of total RNA was reverse-transcribed into cDNA using the High Capacity cDNA Archive kit (Applied Biosystems). Amplification was performed using an ABI PRISM 7000 sequence detection system (Applied Biosystem) using Power SYBR® Green PCR master Mix (Applied Biosystem). Primer pairs for each human transcript were chosen with qPrimer depot software (at primerdepot.nci.nih.gov.). Quantification of qPCR signals was performed using ΔCt relative quantification method using GAPDH as a reference gene for human and rat samples and β-Actin for mouse samples. Values were represented in terms of relative quantity of mRNA level variation or fold increase compared to control conditions.
# Lactase activity was evaluated by using a glucose oxidase method (Glucose Assay Kit, Sigma). […] For Caco-2 cells, lactase activity was determined directly from the cell monolayer. […] The reaction was stopped with 100 μl of H2SO4 and read by spectrophotometry at 450 nm. When lactase activity was determined from intestinal sample, tissue samples were first dounce-homogenized in 0.9% NaCl on crushed ice. […] For each experiment, the background attributed to the remaining glucose in the samples was measured by incubating cells or cell extracts in lactose-free buffer. […]
compound,measurement,setting,value
"COC(Cc1ccc(N)cc1)C(=O)O (centres unmarked) [GED, 3-(4′-aminophenyl)2-methoxypropionic acid]",glucose uptake of Caco-2 cells,[1],did not significantly alter
same,Fold Lactase RNA,[2]; 1 mM,5.28 fold and 5.29 fold
same,Fold Lactase RNA,[2]; 30 mM,8.28 fold
same,LCT activity in the proximal part of the small intestine,[3],significantly increased
same,LCT expression in the proximal part of the small intestine,[3],significantly increased
